Assay results as given in patent US20230373985A1 (Origenis Gmbh, priority 2020, published 2023).

What was measured:
[1] = biological target: T1, wt human JAK1, catalytic site (Homo sapiens, UniProt P23458); assay: HTRF KinEASE assay, JAK1; type: biochemical; settings: 2.5 μM ATP; read-out: IC50, Activity Toward JAK1
T1 construct: wt human JAK1, catalytic site; purchased ThermoFisher
Outline: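 Compounds in DMSO dilution were mixed with kinase, biotin-TK substrate and ATP and reacted for ≥30 min at room temperature. Detection reagents (antibody, streptavidin-XL665) were read 60 min later as HTRF, with emission ratios analysed per KinEASE protocol.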

[2] = biological target: T2, wt human TYK2, catalytic site (Homo sapiens, UniProt P29597); assay: HTRF KinEASE assay, TYK2; type: biochemical; settings: 1 μM ATP; read-out: IC50, Activity Toward TYK2
T2 construct: wt human TYK2, catalytic site; purchased SignalChem
T2 sequence (P29597 897-1176 limits assumed): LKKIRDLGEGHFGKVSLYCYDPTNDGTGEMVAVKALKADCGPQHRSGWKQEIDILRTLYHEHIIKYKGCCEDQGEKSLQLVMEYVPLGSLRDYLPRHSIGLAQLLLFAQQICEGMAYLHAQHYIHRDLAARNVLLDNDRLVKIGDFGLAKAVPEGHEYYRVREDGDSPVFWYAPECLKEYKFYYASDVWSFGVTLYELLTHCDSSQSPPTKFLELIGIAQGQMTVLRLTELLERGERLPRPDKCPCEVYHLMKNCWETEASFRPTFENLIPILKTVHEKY
Outline: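 Kinase reaction run at room temperature for at least 30 min: 2 nM TYK2 with 1 μM ATP, or 1 nM JAK2 with 100 μM ATP, each with 1 μM biotin-TK substrate. Phosphorylation detected by HTRF (60 min antibody/XL665) and evaluated from emission ratios.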

T1 sequence (P23458 875-1153 limits assumed): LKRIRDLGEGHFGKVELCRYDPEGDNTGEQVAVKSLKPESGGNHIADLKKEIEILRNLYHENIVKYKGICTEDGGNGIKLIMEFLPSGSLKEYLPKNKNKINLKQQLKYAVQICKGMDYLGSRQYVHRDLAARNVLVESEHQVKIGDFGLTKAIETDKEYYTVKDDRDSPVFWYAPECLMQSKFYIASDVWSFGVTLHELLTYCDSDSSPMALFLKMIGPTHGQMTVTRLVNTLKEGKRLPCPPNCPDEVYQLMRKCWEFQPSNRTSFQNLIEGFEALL

Structure (SMILES) | IC50 [1] [nM] | IC50 [2] [nM]
COCc1ncnn1-c1ccc(Nc2cn(-c3c(Cl)cccc3Cl)nc2C(N)=O)cc1 [compound 300, 1-(2,6-dichlorophenyl)-4-((4-(5-(methoxymethyl)-1H-1,2,4-triazol-1-yl)phenyl)amino)-1H-pyrazole-3-carboxamide] | 100 to 1000 | 10 to 100
COCn1cc(C(F)(F)F)nc1-c1ccc(Nc2cn(-c3c(Cl)cccc3Cl)nc2C(N)=O)cc1 [compound 292, 1-(2,6-dichlorophenyl)-4-((4-(1-(methoxymethyl)-4-(trifluoromethyl)-1H-imidazol-2-yl)phenyl)amino)-1H-pyrazole-3-carboxamide] | 10 to 100 | < 10
CN(C)CCc1nnnn1-c1ccc(Nc2cn(-c3c(Cl)cccc3Cl)nc2C(N)=O)cc1 [compound 273, 1-(2,6-dichlorophenyl)-4-((4-(5-(2-(dimethylamino)ethyl)-1H-tetrazol-1-yl)phenyl)amino)-1H-pyrazole-3-carboxamide] | 10 to 100 | 10 to 100
NC(=O)c1nn(-c2c(Cl)cccc2Cl)cc1Nc1ccc(CC(=O)N2CCOCC2)nc1 [compound 440, 1-(2,6-dichlorophenyl)-4-((6-(2-morpholino-2-oxoethyl)pyridin-3-yl)amino)-1H-pyrazole-3-carboxamide] | 10 to 100 | 100 to 1000
NC(=O)c1nn(-c2c(Cl)cccc2Cl)cc1Nc1ccc(N2CCOCC2)cn1 [compound 428, 1-(2,6-dichlorophenyl)-4-((5-morpholinopyridin-2-yl)amino)-1H-pyrazole-3-carboxamide] | 100 to 1000 | 100 to 1000
COC(=O)Cn1cc(Nc2cn(-c3c(Cl)cccc3Cl)nc2C(N)=O)cn1 [compound 462, methyl_2-(4-((3-carbamoyl-1-(2,6-dichlorophenyl)-1H-pyrazol-4-yl)amino)-1H-pyrazol-1-yl)acetate] | 10 to 100 | 100 to 1000
Cn1cc(C(F)(F)F)nc1-c1ccc(Nc2nn(-c3c(Cl)cccc3Cl)nc2C(N)=O)cc1 [compound 115, 2-(2,6-dichlorophenyl)-5-((4-(1-methyl-4-(trifluoromethyl)-1H-imidazol-2-yl)phenyl)amino)-2H-1,2,3-triazole-4-carboxamide] | 100 to 1000 | 10 to 100
NC(=O)c1nn(-c2c(Cl)cccc2Cl)nc1Nc1ccc(-n2ncc3c2CCOC3)cc1 [compound 110, 2-(2,6-Dichloro-phenyl)-5-[4-(6,7-dihydro-4H-pyrano[4,3-c]pyrazol-1-yl)-phenylamino]-2H-[1,2,3]triazole-4-carboxylic acid amide] | 10 to 100 | 10 to 100
CC(C)(C)OC(=O)N[C@H]1CCN(C(=O)c2ccc(Nc3cn(-c4c(Cl)cccc4Cl)nc3C(N)=O)cc2)C1 [compound 325, (S)-tert-butyl_(1-(4-((3-carbamoyl-1-(2,6-dichlorophenyl)-1H-pyrazol-4-yl)amino)benzoyl)pyrrolidin-3-yl)carbamate] | 100 to 1000 | 10 to 100
CN1CCC(N(C)C(=O)c2ccc(Nc3cn(-c4c(Cl)cc(F)cc4Cl)nc3C(N)=O)cc2)CC1 [compound 413, 1-(2,6-dichloro-4-fluorophenyl)-4-((4-(methyl(1-methylpiperidin-4-yl)carbamoyl)phenyl)amino)-1H-pyrazole-3-carboxamide] | 10 to 100 | < 10
COCc1nc(C(F)(F)F)nn1-c1ccc(Nc2cn(-c3c(F)cccc3Cl)nc2C(N)=O)cc1 [compound 298, 1-(2-chloro-6-fluorophenyl)-4-((4-(5-(methoxymethyl)-3-(trifluoromethyl)-1H-1,2,4-triazol-1-yl)phenyl)amino)-1H-pyrazole-3-carboxamide] | 100 to 1000 | 10 to 100
CN1CCN(C(=O)c2ccc(Nc3nn(-c4c(Cl)cccc4Cl)nc3C(N)=O)nc2)CC1 [compound 127, 2-(2,6-dichlorophenyl)-5-((5-(4-methylpiperazine-1-carbonyl)pyridin-2-yl)amino)-2H-1,2,3-triazole-4-carboxamide] | 100 to 1000 | 100 to 1000
N#Cc1cccc2nnc(-c3ccc(Nc4cn(-c5c(Cl)cccc5Cl)nc4C(N)=O)cn3)n12 [compound 476, 4-((6-(5-cyano-[1,2,4]triazolo[4,3-a]pyridin-3-yl)pyridin-3-yl)amino)-1-(2,6-dichlorophenyl)-1H-pyrazole-3-carboxamide] | 10 to 100 | 100 to 1000
NC(=O)c1nn(-c2c(Cl)cccc2Cl)cc1Nc1ccn(-c2ccccn2)n1 [compound 397, 1-(2,6-dichlorophenyl)-4-((1-(pyridin-2-yl)-1H-pyrazol-3-yl)amino)-1H-pyrazole-3-carboxamide] | 100 to 1000 | 100 to 1000
Cc1cnncc1-c1ccc(Nc2cn(-c3c(Cl)cccc3Cl)nc2C(N)=O)cc1 [compound 340, 1-(2,6-dichlorophenyl)-4-((4-(5-methylpyridazin-4-yl)phenyl)amino)-1H-pyrazole-3-carboxamide] | 100 to 1000 | 10 to 100
NC(=O)c1nn(-c2c(Cl)cccc2Cl)cc1Nc1ccc(-c2nnccc2C(F)(F)F)cc1 [compound 69, 1-(2,6-dichlorophenyl)-4-((4-(4-(trifluoromethyl)pyridazin-3-yl)phenyl)amino)-1H-pyrazole-3-carboxamide] | 100 to 1000 | 10 to 100
CN1CCCN(C(=O)c2ccc(Nc3nn(-c4c(Cl)cccc4Cl)nc3C(N)=O)nc2)CC1 [compound 150, 2-(2,6-dichlorophenyl)-5-((5-(4-methyl-1,4-diazepane-1-carbonyl)pyridin-2-yl)amino)-2H-1,2,3-triazole-4-carboxamide] | 10 to 100 | 10 to 100
NC(=O)c1nn(-c2c(Cl)cccc2Cl)nc1Nc1ccc(CC(=O)N2CC(F)C2)nc1 [compound 152, 2-(2,6-dichlorophenyl)-5-((6-(2-(3-fluoroazetidin-1-yl)-2-oxoethyl)pyridin-3-yl)amino)-2H-1,2,3-triazole-4-carboxamide] | 10 to 100 | 100 to 1000
CN(C)C1CCN(C(=O)c2ccc(Nc3cn(-c4c(Cl)cccc4Cl)nc3C(N)=O)nc2)CC1 [compound 442, 1-(2,6-dichlorophenyl)-4-((5-(4-(dimethylamino)piperidine-1-carbonyl)pyridin-2-yl)amino)-1H-pyrazole-3-carboxamide] | 100 to 1000 | 100 to 1000
NC(=O)c1nn(-c2c(Cl)cccc2Cl)cc1Nc1ccc(C(=O)N2CCC2)cc1 [compound 92, 4-((4-(azetidine-1-carbonyl)phenyl)amino)-1-(2,6-dichlorophenyl)-1H-pyrazole-3-carboxamide] | 10 to 100 | 10 to 100
Cc1nn(-c2ccc(Nc3cn(-c4c(Cl)cccc4Cl)nc3C(N)=O)cc2)c(C)c1C [compound 224, 1-(2,6-dichlorophenyl)-4-((4-(3,4,5-trimethyl-1H-pyrazol-1-yl)phenyl)amino)-1H-pyrazole-3-carboxamide] | 100 to 1000 | 100 to 1000
NC(=O)c1nn(-c2c(Cl)cc(F)cc2Cl)nc1Nc1ccc(C(=O)N2CCSCC2)cc1 [compound 177, 2-(2,6-dichloro-4-fluorophenyl)-5-((4-(thiomorpholine-4-carbonyl)phenyl)amino)-2H-1,2,3-triazole-4-carboxamide] | < 10 | 10 to 100
Cn1cncc1-c1ccc(Nc2cn(-c3c(Cl)cccc3Cl)nc2C(N)=O)cc1 [compound 204, 1-(2,6-dichlorophenyl)-4-((4-(1-methyl-1H-imidazol-5-yl)phenyl)amino)-1H-pyrazole-3-carboxamide] | 100 to 1000 | 10 to 100
CN(C)[C@@H]1CCN(C(=O)c2ccc(Nc3nn(-c4c(Cl)cccc4Cl)nc3C(N)=O)nc2)C1 [compound 133, (R)-2-(2,6-dichlorophenyl)-5-((5-(3-(dimethylamino)pyrrolidine-1-carbonyl)pyridin-2-yl)amino)-2H-1,2,3-triazole-4-carboxamide] | 10 to 100 | 100 to 1000
Cn1nnnc1-c1ccc(Nc2cn(-c3c(Cl)cccc3Cl)nc2C(N)=O)cn1 [compound 375, 1-(2,6-dichlorophenyl)-4-((6-(1-methyl-1H-tetrazol-5-yl)pyridin-3-yl)amino)-1H-pyrazole-3-carboxamide] | 100 to 1000 | 10 to 100
NC(=O)c1nn(-c2c(Cl)cccc2Cl)cc1Nc1ccc(C(=O)N2CC(F)(F)C(F)(F)C2)nc1 [compound 362, 1-(2,6-dichlorophenyl)-4-((6-(3,3,4,4-tetrafluoropyrrolidine-1-carbonyl)pyridin-3-yl)amino)-1H-pyrazole-3-carboxamide] | 100 to 1000 | 10 to 100
CCc1ncnn1-c1ccc(Nc2cn(-c3c(Cl)cccc3Cl)nc2C(N)=O)cc1 [compound 291, 1-(2,6-dichlorophenyl)-4-((4-(5-ethyl-1H-1,2,4-triazol-1-yl)phenyl)amino)-1H-pyrazole-3-carboxamide] | < 10 | 10 to 100
CCS(=O)(=O)Nc1ccc(Nc2cn(-c3c(Cl)cccc3Cl)nc2C(N)=O)cc1 [compound 270, 1-(2,6-dichlorophenyl)-4-((4-(ethylsulfonamido)phenyl)amino)-1H-pyrazole-3-carboxamide] | 10 to 100 | 10 to 100
